US5506256A, “Proline derivatives possessing prolyl endopeptidase-inhibitory activity” (Yoshitomi Pharmaceutical Industries, Ltd., priority 1990, dated 1996)
Where two headings read alike, the source gives them in different places.

Experiments:
[1] = biological target: T1, prolyl endopeptidase (Rattus norvegicus, UniProt O70196); experiment: Prolyl endopeptidase-inhibitory activity; type: biochemical; conditions: for inhibition at 0.1 µM: read-out: inhibition rate, prolyl endopeptidase
T1 construct: prolyl endopeptidase extracted from rat brain; from tissue; host or cells: rat brain
T1 sequence (O70196 whole entry): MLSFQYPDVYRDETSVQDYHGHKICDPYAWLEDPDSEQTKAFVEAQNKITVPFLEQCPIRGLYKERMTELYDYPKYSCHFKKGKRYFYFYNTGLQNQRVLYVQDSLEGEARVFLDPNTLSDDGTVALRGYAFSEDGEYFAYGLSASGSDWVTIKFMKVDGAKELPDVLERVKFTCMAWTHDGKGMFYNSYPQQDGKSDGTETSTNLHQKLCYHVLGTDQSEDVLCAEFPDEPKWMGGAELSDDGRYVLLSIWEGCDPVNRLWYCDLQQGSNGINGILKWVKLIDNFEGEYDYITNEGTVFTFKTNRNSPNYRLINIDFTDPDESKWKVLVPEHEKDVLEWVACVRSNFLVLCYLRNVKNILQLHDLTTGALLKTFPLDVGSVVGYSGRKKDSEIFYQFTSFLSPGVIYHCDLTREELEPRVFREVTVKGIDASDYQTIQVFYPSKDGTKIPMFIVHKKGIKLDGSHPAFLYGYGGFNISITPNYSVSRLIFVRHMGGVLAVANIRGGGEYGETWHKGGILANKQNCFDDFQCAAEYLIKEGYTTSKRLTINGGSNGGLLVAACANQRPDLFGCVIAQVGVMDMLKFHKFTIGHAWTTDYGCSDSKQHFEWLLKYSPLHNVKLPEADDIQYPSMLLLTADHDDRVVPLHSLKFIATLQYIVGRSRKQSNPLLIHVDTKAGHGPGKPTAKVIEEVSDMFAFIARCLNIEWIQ
Procedure: Prolyl endopeptidase-inhibitory activity
A mixture of a 0.1M potassium sodium phosphate buffer (pH 7.0) (2675 μl), a solution of the compounds of the present invention in a 0.1M potassium sodium phosphate buffer (pH 7.0) (100 μl) and a solution of prolyl endopeptidase extracted from rat brain in a 25 mM sodium phosphate buffer (100 μl) [123 unit/1, pH 6.8, containing 1 mM dithiothreitol and 0.5 mM EDTA, prepared by the method described in J. Neurochem., 35, 527 (1980)]was preincubated at 30° C. for 30 minutes. Thereto was added a 0.2 mM solution of 7-(N-succinyl-glycyl-prolyl)-4-methylcoumarinamide (Peptide Institute, INC.) in a 0.1M potassium sodium phosphate buffer (pH 7.0) (125 μl), and the mixture was incubated at 30° C. for 1 hour. The reaction mixture was immersed in ice (0° C.) to terminate the reaction, and the fluorescence (a1) was determined ten minutes later (excitation at 370 nm and emission at 440 nm). Concurrently, there were conducted the experiment wherein, in the above system, the prolyl endopeptidase solution was substituted for a 25 mM sodium phosphate buffer (pH 6.8, containing 1 mM dithiothreitol and 0.5 mM EDTA) and the experiment wherein the solution of the compounds of the present invention was substituted for a 0.1M potassium sodium phosphate buffer (pH 7.0). Each fluorescence (a2 and a3) was determined respectively [See Tanpakushitsu Kakusan Koso, 29, 127 (1984)]. The prolyl endopeptidase-inhibition rate was calculated by the following formula, and IC50, a concentration of a compound producing 50% inhibition, was estimated by semilogarithmic graph paper. [formula] […]

[2] = biological target: T2, trypsin (Bos taurus, UniProt P00760); experiment: Determination of trypsin-inhibitory activity; type: biochemical, bovine; conditions: 0.1 μM; read-out: inhibition rate, trypsin
T2 construct: purchased Sigma; host or cells: bovine pancreas
T2 sequence (P00760 24-246): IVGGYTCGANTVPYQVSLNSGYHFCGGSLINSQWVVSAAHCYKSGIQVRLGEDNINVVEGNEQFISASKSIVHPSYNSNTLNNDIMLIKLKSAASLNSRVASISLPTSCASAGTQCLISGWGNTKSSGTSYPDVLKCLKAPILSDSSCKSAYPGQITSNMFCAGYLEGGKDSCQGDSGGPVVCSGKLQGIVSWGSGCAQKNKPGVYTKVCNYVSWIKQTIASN
Procedure: (§1) The methods for the measurement of inhibitory activities against various proteases and the method for calculating the inhibition rate are as follows.
Determination of trypsin-inhibitory activity
In the present invention, a 50 mM Tris-HCl buffer (pH 8.0) was employed as a buffer for measurement.
To a mixture of the above-mentioned buffer (850 μl), a solution of the compounds of the present invention in the same buffer (50 μl) and a 0.02 μM solution of trypsin (derived from bovine pancreas, Sigma) in the same buffer (50 μl) was added a 200 μM solution of 7-(prolyl-phenylaranyl-arginyl)-4-methylcoumarinamide (Peptide Institute, Inc.) in the same buffer (50 μl),and the mixture was incubated at 30° C. for 1 hour. The reaction mixture was immersed in ice (0° C.) to terminate the reaction, and the fluorescence (b1) was determined 1 hour later (excitation at 370 nm and emission at 440 nm). Concurrently, there were conducted the experiment wherein, in the system above, the trypsin solution was substituted for a buffer alone, and the experiment wherein the solution of the compounds of the present invention was substituted for a buffer above. Each fluorescence (b2 and b3) was determined respectively.
(§2) Using the fluorescence x1, x2 and x3 measured in the abovementioned manner, the inhibitory rate against various proteases was calculated by the following formula where x stands for b, c, d, e or f: [formula]

[3] = biological target: T3, chymotrypsin (Bos taurus, UniProt P00766); experiment: Determination of chymotrypsin-inhibitory activity; type: biochemical, bovine; conditions: 0.1 μM; read-out: inhibition rate, chymotrypsin
T3 construct: purchased Sigma; host or cells: bovine pancreas
Procedure: as §1
Determination of chymotrypsin-inhibitory activity
Similarly, by following the procedure mentioned above, but employing a 50 mM Tris-HCl buffer (pH 8.0) as a buffer for measurement, a 0.2 μM solution of chymotrypsin (derived from bovine pancreas, Sigma) in the same buffer as an enzyme solution and a […] solution of 7-(N-succinyl-leucyl-leucyl-valyl-tyrosyl)-4-methylcoumarinamide (Peptide Institute, Inc.) in the same buffer as a substrate solution, each fluorescence (c1, c2 and c3) was determined, respectively.
as §2

[4] = tested on: leucine aminopeptidase; experiment: Determination of leucine aminopeptidase-inhibitory activity; type: biochemical, swine; design: unit not given here; conditions: 0.1 μM
Procedure: as §1
Determination of leucine aminopeptidase-inhibitory activity
Similarly, by following the procedure mentioned above, but employing a 50 mM Tris-HCl buffer (pH 8.0) as a buffer for measurement, a […] solution of leucine aminopeptidase (derived from swine kidney, Sigma) in the same buffer as an enzyme solution and a 200 μM solution of 7-leucyl-4-methyl-coumarinamide (Peptide Institute, Inc.) in the same buffer as a substrate solution, each fluorescence (d1, d2 and d3) was determined, respectively.
as §2

[5] = biological target: T4, elastase (Sus scrofa, UniProt P00772); experiment: Determination of elastase-inhibitory activity; type: biochemical, swine; conditions: 0.1 μM; read-out: inhibition rate, elastase
T4 construct: purchased Sigma; host or cells: swine pancreas
T4 sequence (P00772 27-266): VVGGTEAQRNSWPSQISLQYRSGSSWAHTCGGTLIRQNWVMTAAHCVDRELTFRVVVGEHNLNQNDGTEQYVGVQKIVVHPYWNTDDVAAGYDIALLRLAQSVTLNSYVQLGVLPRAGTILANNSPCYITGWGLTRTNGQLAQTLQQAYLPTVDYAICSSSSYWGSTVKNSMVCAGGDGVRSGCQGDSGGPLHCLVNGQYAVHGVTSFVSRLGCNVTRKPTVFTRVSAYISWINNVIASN
Procedure: as §1
Determination of elastase-inhibitory activity
Similarly, by following the procedure mentioned above, but employing a 1 mM Tris-HCl buffer (pH 8.5) as a buffer for measurement, a 0.2 μM solution of elastase (derived from swine pancreas, Sigma) in the same buffer as an enzyme solution and a 200 μM solution of 7-(N-succinyl-aranyl-prolyl-aranyl)-4-methylcoumarinamide (Peptide Institute, Inc.) in the same buffer as a substrate solution, each fluorescence (e1, e2 and e3) was determined, respectively.
as §2

[6] = biological target: T5, cathepsin B (Bos taurus, UniProt P07688); experiment: Determination of cathepsin B-inhibitory activity; type: biochemical, bovine; conditions: 0.1 μM; read-out: inhibition rate, cathepsin B
T5 construct: purchased Sigma; host or cells: bovine spleen
Procedure: as §1
Determination of cathepsin B-inhibitory activity
Similarly, by following the procedure mentioned above, but employing a 100 mM sodium phosphate buffer (pH 6.0; containing 1.33 mM EDTA Na2) as a buffer for measurement, a 0.02 μM solution of cathepsin B (derived from bovine spleen, Sigma) in the same buffer as an enzyme solution and a 200 μM solution of 7-(N-benzyloxycarbonyl-phenylaranyl-arginyl)-4-methylcoumarinamide (Peptide Institute, Inc.) in the same buffer as a substrate solution, each fluorescence (f1, f2 and f3) was determined, respectively.
as §2

[7] = prolyl endopeptidase extracted from rat brain, pH 7.0, 30° C., read-out: IC50

| Compound | inhibition at 0.1 µM [1] [%] | IC50 [1, 7] [nM] | inhibition at 0.1 µM [2] [%] | inhibition at 0.1 µM [3] [%] | inhibition rate, leucine aminopeptidase [4] | inhibition at 0.1 µM [5] [%] | inhibition at 0.1 µM [6] [%] | IC50 [1] [nM] |
| --- | --- | --- | --- | --- | --- | --- | --- | --- |
| O=C(CSc1ccccc1)[C@@H]1CCCN1C(=O)[C@@H]1CCCN1C(=O)OCc1ccccc1 [Compound 1, (2S)-1-(N-Benzyloxycarbonyl-L-prolyl)-2-[(Phenylthio)acetyl]-pyrrolidine] | 90 | 0.3 | 0 | 20 | 0 | 0 | 0 |  |
| O=C(C[S+]([O-])c1ccccc1)[C@@H]1CCCN1C(=O)[C@@H]1CCCN1C(=O)OCc1ccccc1 (stereo partly drawn) [Compound 2, (2S)-1-(N-Benzyloxycarbonyl-L-prolyl)-2-[(phenylsulfinyl)-acetyl]pyrrolidine] | 100 | 1.2 | 0 | 0 | 0 | 0 | 0 |  |
| O=C(CS(=O)(=O)c1ccccc1)[C@@H]1CCCN1C(=O)[C@@H]1CCCN1C(=O)OCc1ccccc1 [Compound 3, (2S)-1-(N-Benzyloxycarbonyl-L-prolyl)-2-[(phenylsulfonyl)-acetyl]pyrrolidine] | 91 | 12 | 0 | 0 | 0 | 0 | 0 |  |
| O=C(COc1ccccc1)[C@@H]1CCCN1C(=O)[C@@H]1CCCN1C(=O)OCc1ccccc1 [Compound 4, (2S)-1-(N-Benzyloxycarbonyl-L-prolyl)-2-(phenoxyacetyl)-pyrrolidine] | 98 | 0.3 | 0 | 0 | 0 | 0 | 0 |  |
| O=C(C[S+]([O-])c1ccccc1)[C@@H]1CCCN1C(=O)[C@@H]1CCCN1C(=O)CCCc1ccccc1 (stereo partly drawn) [Compound 5, (2S)-1-[N-(4-Phenylbutyryl)-L-prolyl]-2-[(phenylsulfinyl)-acetyl]pyrrolidine] | 98 | 0.3 | 0 | 0 | 0 | 0 | 0 |  |
| COc1ccc([S+]([O-])CC(=O)[C@@H]2CCCN2C(=O)[C@@H]2CCCN2C(=O)OCc2ccccc2)cc1 (stereo partly drawn) [Compound 6, (2S)-1-(N-Benzyloxycarbonyl-L-prolyl)-2-[(4-methoxyphenylsulfinyl)acetyl]pyrrolidine] | 98 | 0.65 | 0 | 0 | 0 | 0 | 20 |  |
| O=C(C[S+]([O-])c1ccc([N+](=O)[O-])cc1)[C@@H]1CCCN1C(=O)[C@@H]1CCCN1C(=O)OCc1ccccc1 (stereo partly drawn) [Compound 7, (2S)-1-(N-Benzyloxycarbonyl-L-prolyl)-2-[(4-nitrophenylsulfinyl)acetyl]pyrrolidine] | 97 | 1 | 0 | 0 | 0 | 0 | 20 |  |
| CC(C)[S+]([O-])CC(=O)[C@@H]1CCCN1C(=O)[C@@H]1CCCN1C(=O)OCc1ccccc1 (stereo partly drawn) [Compound 8, (2S)-1-(N-Benzyloxycarbonyl-L-prolyl)-2-[(isopropylsulfinyl)-acetyl]pyrrolidine] | 92 | 3 | 0 | 0 | 0 | 0 | 0 |  |
| O=C(C[S@+]([O-])c1ccccc1)[C@@H]1CCCN1C(=O)[C@@H]1CCCN1C(=O)OCc1ccccc1 [Compound 9, (2S)-1-(N-Benzyloxycarbonyl-L-prolyl)-2-{[(S)-phenylsulfinyl]-acetyl}pyrrolidine] | 98 | 0.2 | 0 | 0 | 0 | 0 | 0 |  |
| O=C(C[S@@+]([O-])c1ccccc1)[C@@H]1CCCN1C(=O)[C@@H]1CCCN1C(=O)OCc1ccccc1 [Compound 10, (2S)-1-(N-Benzyloxycarbonyl-L-prolyl)-2-{[(R)-phenylsulfinyl]acetyl}pyrrolidine] | 97 | 80 | 0 | 0 | 0 | 0 | 0 |  |
| COc1ccc([S@@+]([O-])CC(=O)[C@@H]2CCCN2C(=O)[C@@H]2CCCN2C(=O)OCc2ccccc2)cc1 [Compound 11, (2S)-1-(N-Benzyloxycarbonyl-L-prolyl)-2-{[(S)-4-methoxy-phenylsulfinyl]acetyl}pyrrolidine] | 90 | 1.5 | 0 | 0 | 0 | 0 | 0 |  |
| O=C(COc1ccc2c(c1)OCO2)[C@@H]1CCCN1C(=O)[C@@H]1CCCN1C(=O)NCc1ccccc1 [Compound 33, (2S)-1-[N-(Benzylaminocarbonyl)-L-prolyl]-2-{[(3,4-methylenedioxy)phenoxy]acetyl} pyrrolidine] | 96 |  | 0 | 0 |  | 0 | 0 | 1 |
